Reference: publication PMC8830019, “A sensitive, accurate, and high-throughput gluco-oligosaccharide oxidase-based HRP colorimetric method for assaying lytic polysaccharide monooxygenase activity” (Biotechnology for Biofuels and Bioproducts, 2022)

Target: T1, SsGOOX (recombinant gluco-oligosaccharide oxidase) (Sarocladium strictum, UniProt Q6PW77)
T1 construct: gene gluO; T. reesei cbh1 signal peptide at N-terminus, C-terminal 6xHis; codon-optimised synthetic gene, secreted by Trichoderma reesei QM9414
T1 sequence (Q6PW77 26-499): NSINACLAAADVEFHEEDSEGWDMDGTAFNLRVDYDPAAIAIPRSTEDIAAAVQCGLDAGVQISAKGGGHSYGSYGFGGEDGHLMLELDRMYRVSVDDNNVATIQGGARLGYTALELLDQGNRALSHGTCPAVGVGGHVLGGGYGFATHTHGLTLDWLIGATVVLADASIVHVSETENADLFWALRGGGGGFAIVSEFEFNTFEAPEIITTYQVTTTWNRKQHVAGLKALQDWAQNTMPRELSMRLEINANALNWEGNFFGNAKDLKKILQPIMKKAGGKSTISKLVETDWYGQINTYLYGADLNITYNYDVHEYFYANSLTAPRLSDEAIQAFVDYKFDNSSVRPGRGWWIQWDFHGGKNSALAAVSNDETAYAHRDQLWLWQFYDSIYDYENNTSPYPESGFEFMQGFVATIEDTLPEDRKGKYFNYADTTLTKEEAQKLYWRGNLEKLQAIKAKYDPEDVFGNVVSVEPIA
Experiment: HRP-coupled colorimetric H2O2 assay (4-AAP / DCHBS, A515), modified Hill's model with substrate inhibition
Format: biochemical
Conditions: pH 7.0 phosphate, room temperature (about 26 C), 10 nM enzyme, 0.02-5 mM cellobiose; Hill-type fit with substrate inhibition; substrate inhibition constant; second site

With OC[C@H]1O[C@@H](O[C@H]2[C@H](O)[C@@H](O)C(O)O[C@@H]2CO)[C@H](O)[C@@H](O)[C@@H]1O (stereo partly shown) [cellobiose] the Ki was 995 µM.
